pKi: −log10 of the molar value. Some results are limits rather than exact numbers.

Usually pKi stands for the Ki on a negative log10 scale, so that one unit is a factor of ten.

The test system of one assay is N2a cells. Nature of the assay: N2a cellular assay (neurite outgrowth). Format: cell-based. The note with it: N2a neuroblastoma cells, FIG. 1. On the procedure: FK506 analogs have repeatedly been described as neuroprotective and […] agents in the prior arts.
Example 12: N2a Cellular Assay
At day one N2a cells were plated into 24-well plates with cover slips (pretreated with polylysine) at a density of 35,000 cells/well and cultured with DMEM (incl. FCS 10% and Pen/Strep 1%) for 24 h. Next, cells were transfected with 80 ng expression plasmids encoding Venus as well as 720 ng pRK5 (mock transfection) in a total volume of 500 μl starvation media containing different concentrations of compounds or DMSO for 36 h (media without FCS; induction of neurite outgrowth). Therefore media was removed and replaced by 400 μl DMEM (empty). Next an equivalent volume of plasmids were given to 50 μl OPTIMEM and incubated for 5 min at RT. Additionally 1.5 μl Lipofectamine 2000 was separately dissolved in 50 μl OPTIMEM. After 5 min both solutions (plasmids and Lipofectamine 2000 containing media) were combined and incubated again for another 20 min. After that 100 μl of this mixture was given to 400 μl media per well. (See also protocol of the provider—Life Technologies).
On the next day cells were washed with PBS and incubated for 30 min with 300 μl PFA (4%) and sucrose (5%) to fix cells. After fixation cells were washed three times, mounted onto microscope slides using 4 μl Vectashield (mounting media) and analyzed by fluorescence microscopy. […]

Another assay concerns the target T1, FKBP51 (Homo sapiens, UniProt Q13451).
T1 sequence (Q13451 42-130 limits assumed): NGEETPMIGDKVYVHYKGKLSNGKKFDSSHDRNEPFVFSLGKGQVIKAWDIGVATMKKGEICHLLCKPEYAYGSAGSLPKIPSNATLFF
Nature of the assay: Fluorescence polarization (FP) assay, binding to the FK506-binding domain of FKBP51. Conditions: FK506-binding domain of FKBP51 (FKBP51FK1), competition with fluorescent ligand 2b. A digest of the protocol:
(§1)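 Competitive FP with fluorescent ligand 2b at 20 nM (2× concentration) and FK1 domain at 280 nM (FKBP51) or 400 nM (FKBP52) in 20 mM HEPES pH 8, 0.01% Triton-X100. Anisotropy read after 30 min at room temperature (ex 485, em 535 nm), in duplicate; IC50 by four-parameter fit, Ki via Wang competitive equation.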
In general terms: In fluorescence polarisation assays a small probe gives low polarisation when free and higher when bound to something large.

For the next assay, the target named is T2, FKBP52 (Homo sapiens, UniProt Q02790).
T2 sequence (Q02790 50-138 limits assumed): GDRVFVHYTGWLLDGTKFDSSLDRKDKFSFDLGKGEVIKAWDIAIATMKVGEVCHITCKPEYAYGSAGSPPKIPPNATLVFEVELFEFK
Nature of the assay: Fluorescence polarization (FP) assay, binding to the FK506-binding domain of FKBP52. The note with it: FK506-binding domain of FKBP52 (FKBP52FK1), competition with fluorescent ligand 2b. A digest of the protocol:
as §1

Turning to `COc1ccc(OCCN2C[C@H]([C@H](O)CO)C3CCCC(C2=O)N3S(=O)(=O)c2cc(Cl)cc(Cl)c2)cc1OC` (stereo partly drawn) [Compound C2a, (1S,5S,6R)-10-((3,5-dichlorophenyl)sulfonyl)-5-(1,2-dihydroxyethyl)-3-(2-(3,4-dimethoxyphenoxy)ethyl)-3, 10-diazabicyclo[4.3.1]decan-2-one], the neurite outgrowth entry in the assay on N2a cells is “potently enhanced neurite outgrowth”.

Consider `COc1ccc(OCCN2C[C@H](O)[C@H]3CCC[C@@H](C2=O)N3S(=O)(=O)c2cc(Cl)cc(Cl)c2)cc1OC` [Compound H2.3, (1S,5S,6R)-10-((3,5-dichlorophenyl)sulfonyl)-3-(2-(3,4-dimethoxyphenoxy)ethyl)-5-hydroxy-3,10-diazabicyclo[4.3.1]decan-2-one], for which the results for the pKi on FKBP51 and on FKBP52 were no less than 7.00 and 6.30 to 7.00, respectively.

Consider `O=C1[C@@H]2CCC[C@H]([C@@H](CF)CN1Cc1ccccn1)N2S(=O)(=O)c1cc(Cl)cc(Cl)c1` [Compound M4, (1S,5S,6R)-10-((3,5-dichlorophenyl)sulfonyl)-5-(fluoromethyl)-3-(pyridin-2-ylmethyl)-3,10-diazabicyclo[4.3.1]decan-2-one], for which the pKi at FKBP51 and on FKBP52 was no less than 7.00 each time.

In the case of `C#CCN1C[C@H](COC)[C@H]2CCC[C@@H](C1=O)N2S(=O)(=O)c1cc(Cl)cc(C(=O)OC)c1` [Compound N12, methyl 3-chloro-5-(((1S,5S,6R)-5-(methoxymethyl)-2-oxo-3-(prop-2-yn-1-yl)-3,10-diazabicyclo[4.3.1]decan-10-yl)sulfonyl)benzoate], the pKi at FKBP51 and at FKBP52 was 6.30 to 7.00 throughout.

`C=CC1CN(Cc2ccccn2)C(=O)C2CCCC1N2S(=O)(=O)c1cccc(Cl)c1` (stereo in doubt) [Compound K11, (1S,5R,6R)-10-((3-chlorophenyl)sulfonyl)-3-(pyridin-2-ylmethyl)-5-vinyl-3,10-diazabicyclo[4.3.1]decan-2-one]: the pKi on FKBP51 and at FKBP52 was 6.30 to 7.00 in each case.

Turning to `COC[C@H]1CN(Cc2cnn[nH]2)C(=O)[C@@H]2CCC[C@H]1N2S(=O)(=O)c1cc(Cl)cc(C(N)=O)c1` [Compound N21, 3-(((1S,5S,6R)-3-((1H-1,2,3-triazol-5-yl)methyl)-5-(methoxymethyl)-2-oxo-3,10-diazabicyclo[4.3.1]decan-10-yl)sulfonyl)-5-chlorobenzamide], the pKi on FKBP51 and at FKBP52 was no less than 7.00 each time.

Take `COCCN1C[C@H](C(N)=O)[C@H]2CCC[C@@H](C1=O)N2S(=O)(=O)c1cc(Cl)cc(Cl)c1` [Compound B11, (1S,5S,6R)-10-((3,5-dichlorophenyl)sulfonyl)-3-(2-methoxyethyl)-2-oxo-3,10-diazabicyclo[4.3.1]decane-5-carboxamide]: the negative-log Ki (pKi) at FKBP51 and on FKBP52 was 6.30 to 7.00 in each case.

Consider `COc1ccc(OCCN2C[C@H](CCO)[C@H]3CCC[C@@H](C2=O)N3S(=O)(=O)c2cc(Cl)cc(Cl)c2)cc1OC` [Compound D8, (1S,5S,6R)-10-((3,5-dichlorophenyl)sulfonyl)-3-(2-(3,4-dimethoxyphenoxy)ethyl)-5-(2-hydroxyethyl)-3,10-diazabicyclo[4.3.1]decan-2-one], for which the pKi at FKBP51 and on FKBP52 was no less than 7.00 each time.

Consider `C#CCN1C[C@H](COC)[C@H]2CCC[C@@H](C1=O)N2S(=O)(=O)c1cccnc1` [Compound N13, (1S,5S,6R)-5-(methoxymethyl)-3-(prop-2-yn-1-yl)-10-(pyridin-3-ylsulfonyl)-3, 10-diazabicyclo[4.3.1]decan-2-one], for which the negative-log Ki (pKi) on FKBP51 and on FKBP52 was 6.00 to 6.30 in each case.

Regarding `C=C[C@@H]1CN(Cc2ccccn2)C(=O)[C@@H]2CCC[C@H]1N2S(=O)(=O)c1cccc(C(=O)OC)c1` [Compound K23, methyl 3-(((1S,5R,6R)-2-oxo-3-(pyridin-2-ylmethyl)-5-vinyl-3,10-diazabicyclo[4.3.1]decan-10-yl)sulfonyl)benzoate], the pKi on FKBP51 and on FKBP52 was 6.00 to 6.30 throughout.

For `COC[C@H]1CN(Cc2cnn[nH]2)C(=O)[C@@H]2CCC[C@H]1N2S(=O)(=O)c1cc(Cl)c(NC(C)=O)c(Cl)c1` [Compound N24, N-(4-(((1S,5S,6R)-3-((1H-1,2,3-triazol-5-yl)methyl)-5-(methoxymethyl)-2-oxo-3,10-diazabicyclo[4.3.1]decan-10-yl)sulfonyl)-2,6-dichlorophenyl)acetamide], the pKi on FKBP51 and on FKBP52 was no less than 7.00 throughout.

`C=CC1CN(Cc2c[nH]nn2)C(=O)C2CCCC1N2S(=O)(=O)c1cc(Cl)cc(Cl)c1` (stereo in doubt) [Compound J13, (1S,5R,6R)-3-((1H-1,2,3-triazol-4-yl)methyl)-10-((3,5-dichlorophenyl)sulfonyl)-5-vinyl-3,10-diazabicyclo[4.3.1]decan-2-one]: the pKi at FKBP51 and on FKBP52 was no less than 7.00 throughout.

Regarding `C#CCN1C[C@H](COC)[C@H]2CCC[C@@H](C1=O)N2S(=O)(=O)c1ccc(-c2ccccc2)nc1` [Compound N14, (1S,5S,6R)-5-(methoxymethyl)-10-((6-phenylpyridin-3-yl)sulfonyl)-3-(prop-2-yn-1-yl)-3,10-diazabicyclo[4.3.1]decan-2-one], the negative logarithm of the Ki (pKi) at FKBP51 and on FKBP52 was 6.30 to 7.00 throughout.

On to `O=C1[C@@H]2CCC[C@H]([C@@H](C(F)F)CN1Cc1ccccn1)N2S(=O)(=O)c1cc(Cl)cc(Cl)c1` [Compound M3, (1S,5S,6R)-10-((3,5-dichlorophenyl)sulfonyl)-5-(difluoromethyl)-3-(pyridin-2-ylmethyl)-3,10-diazabicyclo[4.3.1]decan-2-one], for which the pKi at FKBP51 and at FKBP52 was no less than 7.00 in each case.

As to `C=CC1CN(CCCOCc2ccccc2)C(=O)C2CCCC1N2S(=O)(=O)c1cc(Cl)cc(Cl)c1` (stereo in doubt) [Compound J1, (1S,5R,6R)-3-(3-(benzyloxy)propyl)-10-((3,5-dichlorophenyl)sulfonyl)-5-vinyl-3,10-diazabicyclo[4.3.1]decan-2-one], the pKi on FKBP51 and at FKBP52 was 6.30 to 7.00 throughout.

In the case of `C=CC1CN(Cc2ccccn2)C(=O)C2CCCC1N2S(=O)(=O)c1ccc(NC(C)=O)c(Br)c1` (stereo in doubt) [Compound K20, N-(2-bromo-4-(((1S,5R,6R)-2-oxo-3-(pyridin-2-ylmethyl)-5-vinyl-3,10-diazabicyclo[4.3.1]decan-10-yl)sulfonyl)phenyl)acetamide], the pKi at FKBP51 and on FKBP52 was 6.30 to 7.00 each time.

Regarding `C#CCN1C[C@H](COC)[C@H]2CCC[C@@H](C1=O)N2S(=O)(=O)c1ccc(-c2ncccn2)cc1` [Compound N15, (1S,5S,6R)-5-(methoxymethyl)-3-(prop-2-yn-1-yl)-10-((4-(pyrimidin-2-yl)phenyl)sulfonyl)-3,10-diazabicyclo[4.3.1]decan-2-one], the pKi at FKBP51 and on FKBP52 was 6.30 to 7.00 in each case.

Take `C=CC1CN(Cc2ccccn2)C(=O)C2CCCC1N2S(=O)(=O)c1cc(Br)cc(C(=O)OC)c1` (stereo in doubt) [Compound K24, methyl 3-bromo-5-(((1S,5R,6R)-2-oxo-3-(pyridin-2-ylmethyl)-5-vinyl-3,10-diazabicyclo[4.3.1]decan-10-yl)sulfonyl)benzoate]: the pKi at FKBP51 and on FKBP52 was no less than 7.00 throughout.

As to `COc1ccc(OCCN2C[C@H](C(C)O)C3CCCC(C2=O)N3S(=O)(=O)c2cc(Cl)cc(Cl)c2)cc1OC` (stereo in doubt) [Compound D7, (1S,5S,6R)-10-((3,5-dichlorophenyl)sulfonyl)-3-(2-(3,4-dimethoxyphenoxy)ethyl)-5-((R)-1-hydroxyethyl)-3,10-diazabicyclo[4.3.1]decan-2-one], the pKi on FKBP51 and on FKBP52 was no less than 7.00 in each case.

As for `COCCN1CC(COC)C2CCCC(C1=O)N2S(=O)(=O)c1cc(Cl)cc(Cl)c1` (stereo in doubt) [Compound B14, (1S,5R,6R)-10-((3,5-dichlorophenyl)sulfonyl)-3-(2-methoxyethyl)-5-(methoxymethyl)-3,10-diazabicyclo[4.3.1]decan-2-one], the pKi at FKBP51 was no less than 7.00; at FKBP52 it was 6.30 to 7.00.

These data come from patent US9914732B2, “Diazabicyclo[4.3.1]decane derivatives for treatment of psychiatric disorders” (Max-Planck-Gesellschaft zur Forderung der Wissenschaften …, priority 2014, dated 2018).
